In patent publication US10351575B2, “Bicyclic urea, thiourea, guanidine and cyanoguanidine compounds useful for the treatment of pain” (Array BioPharma Inc., priority 2012, dated 2019):
Where a name gives a salt, the structure may show the parent alone.

target: His-tagged recombinant human TrkA (Homo sapiens (Human), UniProt P04629); test: TrkA LanthaScreen Eu Kinase Binding Assay; details: averaged IC50; TR-FRET binding, 60 min, 22° C.; read-out: TrkA Enzyme IC50
Procedure: TrkA binding activity was determined in a TrkA LanthaScreen™ Eu Kinase Binding Assay. 5 nM His-tagged recombinant human TrkA (6HIS tagged cytoplasmic domain from Invitrogen, Catalog No. PV3144) was incubated with 4 nM Alexa-Fluor® Tracer 236 (Invitrogen Cat. No. PV5592), 2 nM biotinylated anti-His (Invitrogen Cat. No. PV6090), and 2 nM europium-labeled Streptavidin (Invitrogen Cat. No. PV5899), in buffer (25 mM MOPS, pH 7.5, 5 mM MgCl2, 0.005% Triton X-100). Three fold serial dilutions of compounds of the invention in DMSO were added to a final percentage of 2% DMSO. After 60-minute incubation at 22° C., the reaction was measured using the EnVision mutlimode plate reader (PerkinElmer) via TR-FRET dual wavelength detection at […]. The percent of control was calculated using a ratiometric emission factor. The IC50 values were determined by fitting a four parameter model to the percent of control data.

Chain of His-tagged recombinant human TrkA (P04629 440-796): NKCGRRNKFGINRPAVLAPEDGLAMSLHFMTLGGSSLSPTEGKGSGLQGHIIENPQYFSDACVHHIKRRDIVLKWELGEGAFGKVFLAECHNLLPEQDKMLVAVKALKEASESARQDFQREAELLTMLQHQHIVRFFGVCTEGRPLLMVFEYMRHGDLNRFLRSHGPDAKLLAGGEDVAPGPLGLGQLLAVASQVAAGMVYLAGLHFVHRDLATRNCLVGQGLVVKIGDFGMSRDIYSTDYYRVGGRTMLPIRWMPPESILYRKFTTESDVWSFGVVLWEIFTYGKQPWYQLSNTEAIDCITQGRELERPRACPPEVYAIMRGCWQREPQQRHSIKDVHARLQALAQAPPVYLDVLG

Compound | IC50 [nM]
Cc1c(-c2cnn(C)c2)nn(-c2ccccc2)c1NC(=O)NC1CN(CC(F)(F)F)CCc2ccccc21 (centres unmarked) [Example 18, 1-(1′,4-dimethyl-1-phenyl-1H,1′H-3,4′-bipyrazol-5-yl)-3-(3-(2,2,2-trifluoroethyl)-2,3,4,5-tetrahydro-1H-benzo[d]azepin-1-yl)urea] | 100 to 1000
Cc1c(-c2cnn(C)c2)nn(-c2ccccc2)c1NC(=O)N[C@@H]1c2ccccc2C(C)(C)[C@H]1O [Example 72] | < 100
CNC(=O)c1nn(-c2ccccc2)c(NC(=O)N[C@@H]2c3ccc(F)cc3C(C)(C)C[C@H]2O)c1C [Example 88, 5-(3-((1,2-trans)-6-fluoro-2-hydroxy-4,4-dimethyl-1,2,3,4-tetrahydronaphthalen-1-yl)ureido)-N,4-dimethyl-1-phenyl-1H-pyrazole-3-carboxamide] | < 100
CO[C@H]1Cc2ccccc2[C@@H]1NC(=O)Nc1c2c(nn1-c1ccccc1)CCC2 [Example 47, 1-((1S,2S)-2-methoxy-2,3-dihydro-1H-inden-1-yl)-3-(2-phenyl-2,4,5,6-tetrahydrocyclopenta[c]pyrazol-3-yl)urea] | 100 to 1000
Cc1c(-c2ccc(=O)n(C)c2)nn(-c2ccccc2)c1NC(=O)N[C@@H]1c2cc(F)c(F)cc2C(C)(C)C[C@H]1O [Example 83, 1-((1,2-trans)-6,7-difluoro-2-hydroxy-4,4-dimethyl-1,2,3,4-tetrahydronaphthalen-1-yl)-3-(4-methyl-3-(1-methyl-6-oxo-1,6-dihydropyridin-3-yl)-1-phenyl-1H-pyrazol-5-yl)urea] | < 100
Cc1c(-c2cnn(C)c2)nn(-c2ccccc2)c1NC(=O)NC1COCc2ccccc21 (centres unmarked) [Example 8, 1-(1′,4-dimethyl-1-phenyl-1H,1′H-3,4′-bipyrazol-5-yl)-3-(isochroman-4-yl)urea] | 100 to 1000
Cc1c(-c2cnn(C)c2)nn(-c2ccccc2)c1NC(=O)NC1CCC(C)(O)c2ccccc21 (centres unmarked) [Example 37, 1-(1′,4-dimethyl-1-phenyl-1H,1′H-[3,4′-bipyrazol]-5-yl)-3-(4-hydroxy-4-methyl-1,2,3,4-tetrahydronaphthalen-1-yl)urea] | 100 to 1000
Cc1ncc(-c2nn(-c3ccccc3)c(NC(=O)N[C@@H]3c4ccccc4C[C@H]3O)c2C)cn1 [Example 66, 1-((1R,2R)-2-hydroxy-2,3-dihydro-1H-inden-1-yl)-3-(4-methyl-3-(2-methylpyrimidin-5-yl)-1-phenyl-1H-pyrazol-5-yl)urea] | < 100
Cc1c(-c2ccc(=O)n(C)c2)nn(-c2ccccc2)c1NC(=O)N[C@@H]1c2ccc(F)cc2C(C)(C)C[C@H]1O [Example 90] | < 100
CCN1CCC(NC(=O)Nc2c(C)c(-c3ccc(=O)n(C)c3)nn2-c2ccccc2)c2ccccc21 (centres unmarked) [Example 42, 1-(1-ethyl-1,2,3,4-tetrahydroquinolin-4-yl)-3-(4-methyl-3-(1-methyl-6-oxo-1,6-dihydropyridin-3-yl)-1-phenyl-1H-pyrazol-5-yl)urea] | < 100
CCN1CCC(NC(=O)Nc2c(C)c(-c3ccc(=O)n(C)c3)nn2-c2ccccc2)c2cc(Cl)ccc21 (centres unmarked) [Example 45, 1-(6-chloro-1-ethyl-1,2,3,4-tetrahydroquinolin-4-yl)-3-(4-methyl-3-(1-methyl-6-oxo-1,6-dihydropyridin-3-yl)-1-phenyl-1H-pyrazol-5-yl)urea] | < 100
Cc1nn(-c2ccccc2)c(NC(=O)N[C@H]2CCCc3ccccc32)c1Br [Example 11, (S)-1-(4-bromo-3-methyl-1-phenyl-1H-pyrazol-5-yl)-3-(1,2,3,4-tetrahydronaphthalen-1-yl)urea] | < 100
COc1ncc(-c2nn(-c3ccccc3)c(NC(=O)N[C@@H]3c4ccccc4C4(CC4)[C@H]3O)c2C)cn1 (relative stereo) [Example 57, 1-(trans-2′-hydroxy-2′,3′-dihydrospiro[cyclopropane-1,1′-inden]-3′-yl)-3-(3-(2-methoxypyrimidin-5-yl)-4-methyl-1-phenyl-1H-pyrazol-5-yl)urea] | < 100
COCCO[C@@H]1Cc2ccccc2[C@H]1NC(=O)Nc1c2c(nn1-c1ccccc1)CCC2 [Example 50, 1-((1R,2R)-2-(2-methoxyethoxy)-2,3-dihydro-1H-inden-1-yl)-3-(2-phenyl-2,4,5,6-tetrahydrocyclopenta[c]pyrazol-3-yl)urea] | 100 to 1000
Cc1c(-c2cnn(C)c2)nn(-c2ccccc2)c1NC(=O)NC1CCOc2ccccc21 (centres unmarked) [Example 7, 1-(chroman-4-yl)-3-(1′,4-dimethyl-1-phenyl-1H,1′H-3,4′-bipyrazol-5-yl)urea] | 100 to 1000

Continued, values first:

IC50 [nM] | Compound
< 100 | Cc1c(-c2cnn(C)c2)nn(-c2ccccc2)c1NC(=O)N[C@@H]1c2cc(F)ccc2C(C)(C)C[C@H]1O [Example 92, 1-(1′,4-dimethyl-1-phenyl-1H,1′H-[3,4′-bipyrazol]-5-yl)-3-((1,2-trans)-7-fluoro-2-hydroxy-4,4-dimethyl-1,2,3,4-tetrahydronaphthalen-1-yl)urea]
< 100 | Cc1c(-c2cnn(C)c2)nn(-c2ccccc2)c1NC(=O)NC1CSCc2ccc(Br)cc21 (centres unmarked) [Example 114, 1-(6-bromoisothiochroman-4-yl)-3-(1′,4-dimethyl-1-phenyl-1H,1′H-[3,4′-bipyrazol]-5-yl)urea]
< 100 | O=C(Nc1c(Cl)c(OC[C@H]2CNCCO2)nn1-c1ccccc1)N[C@@H]1c2ccccc2C2(CC2)[C@H]1O [Example 140, 1-(4-chloro-3-((R)-morpholin-2-ylmethoxy)-1-phenyl-1H-pyrazol-5-yl)-3-((2′R,3′R)-2′-hydroxy-2′,3′-dihydrospiro[cyclopropane-1,1′-inden]-3′-yl)urea]
< 100 | Cc1c(-c2cnn(C)c2)nn(-c2ccccc2)c1NC(=O)NC1CS(=O)(=O)Cc2ccc(Br)cc21 (centres unmarked) [Example 115, 1-(6-bromo-2,2-dioxidoisothiochroman-4-yl)-3-(1′,4-dimethyl-1-phenyl-1H,1′H-[3,4′-bipyrazol]-5-yl)urea]
< 100 | Cc1c(-c2cnn(C)c2)nn(-c2ccccc2)c1NC(=O)NC1CN(CC(F)(F)F)C2(CC2)c2ccccc21 (centres unmarked) [Example 136, 1-(1′,4-dimethyl-1-phenyl-1H,1′H-[3,4′-bipyrazol]-5-yl)-3-(2′-(2,2,2-trifluoroethyl)-3′,4′-dihydro-2′H-spiro[cyclopropane-1,1′-isoquinolin]-4′-yl)urea trifluoroacetate]
< 100 | Cc1c(-c2cnn(C)c2)nn(-c2ccccc2)c1NC(=O)N[C@@H]1c2ccccc2C2(CC2)[C@H]1O [Example 137, 1-(1′,4-dimethyl-1-phenyl-1H,1′H-[3,4′-bipyrazol]-5-yl)-3-((2′R,3′R)-2′-hydroxy-2′,3′-dihydrospiro[cyclopropane-1,1′-inden]-3′-yl)urea]
< 100 | Cc1c(-c2cnn(C)c2)nn(-c2ccccc2)c1NC(=O)NC1CN(CC(F)(F)F)C(=O)c2ccccc21 (centres unmarked) [Example 116, 1-(1′,4-dimethyl-1-phenyl-1H,1′H-[3,4′-bipyrazol]-5-yl)-3-(1-oxo-2-(2,2,2-trifluoroethyl)-1,2,3,4-tetrahydroisoquinolin-4-yl)urea]
< 100 | Cc1c(-c2cnn(C)c2)nn(-c2ccccc2)c1NC(=O)N[C@H]1CCCc2cc(F)ccc21 [Example 103, (S)-1-(1′,4-dimethyl-1-phenyl-1H,1′H-[3,4′-bipyrazol]-5-yl)-3-(6-fluoro-1,2,3,4-tetrahydronaphthalen-1-yl)urea]
